Laboratory results as given in US7015209B2, “Hair-growing agent” (Kyowa Hakko Kogyo Co., Ltd., priority 1999, dated 2006).
pIC50: −log10 of the molar value. Where two headings read alike, the source gives them in different places.

What was measured:
[1] = test system: mouse hair follicle epithelial cells; experiment: Cell growth-promoting effect on cultured mouse hair follicle epithelial cells (MTT); assay type: cell-based
Protocol: Hair follicle epithelial cells were separated and cultured according to a modification of the method of Tanigaki, et al. [Archives of Dermatological Research, 284, 290–296 (1992)].
The skin on the back of a 4-days-old C3H mouse (Charles River Japan, Inc.) was cut off and treated with MEM (Eagle's Minimum Essential Medium) containing 500 units/ml Dispase (Godo Shusei Co., Ltd.) and 5% fetal calf serum (FCS) at 4° C. for 16 hours.
Then, the epidermis was stripped from the skin section, and the obtained dermis layer was treated with DMEM (Dulbecco's modified Eagle Medium) containing 0.25% Collagenase N-2 (Nitta Gelatin Co., Ltd.) and 10% FCS at 37° C. for one hour to obtain a dermis suspension. The dermis suspension was filtered through a 212-μm nylon mesh (Nippon Rikagaku Kikai Co., Ltd.) and the filtrate was centrifuged at 1000 rpm for 5 minutes to obtain pellets containing hair follicle tissue. To the pellets was added calcium/magnesium-free PBS (Dulbecco's Phosphate-Buffered Saline) and the pellets were suspended therein using a pipette. The resulting suspension was allowed to stand for 15 minutes to precipitate hair tissue. The same procedure as above (addition of calcium/magnesium-free PBS, suspending by use of a pipette, and precipitation by allowing suspension to stand for 15 minutes) was repeated three times using the obtained hair tissue.
Then, the hair tissue was treated with a solution containing 0.1% ethylenediaminetetraacetic acid (EDTA) and 0.25% trypsin (Gibco) at 37° C. for 5 minutes. To the resulting mixture was added DMEM containing 10% FCS to prepare a hair tissue cell suspension having a density of 3×10^5 cells/ml. The hair tissue cell suspension was put into wells of a 24-well collagen-coated plate (Iwaki Glass Co., Ltd.) in an amount of 1 ml/well, followed by culturing in 5% CO2 at 37° C. for 24 hours.
After the culturing, the medium was replaced by a medium prepared by adding to MCDB153 medium (Kyokuto Pharmaceutical Ind. Co., Ltd.) DMSO containing 5 mg/l bovine insulin (Sigma Chemical Co., Ltd.); 5 μg/l mouse epidermal growth factor (EGF) (Takara Shuzo Co., Ltd.); 40 mg/l bovine pituitary extract (Kyokuto Pharmaceutical Ind. Co., Ltd.); 10 mg/l human transferrin (Sigma Chemical Co., Ltd.); 0.4 mg/l hydrocortisone (Sigma Chemical Co., Ltd.); 0.63 μg/l progesterone (Collaborative Research Co.); 14 mg/l O-phosphoethanolamine (Sigma Chemical Co., Ltd.); 6.1 mg/l ethanolamine (Sigma Chemical Co., Ltd.); 50 U/ml penicillin (Wako Pure Chemical Industries, Ltd.); 50 μg/ml streptomycin (Wako Pure Chemical Industries, Ltd.); monooleoyl lysophosphatidic acid, dioleoyl phosphatidic acid (Sigma Chemical Co., Ltd.), didecanoyl phosphatidic acid (Sigma Chemical Co., Ltd.), dimyristoyl phosphatidic acid (Funakoshi Co., Ltd.), dipalmitoyl phosphatidic acid (Wako Pure Chemical Industries, Ltd.), dilauroyl phosphatidic acid (Funakoshi Co., Ltd.) or egg yolk-derived phosphatidic acid (Sigma Chemical Co., Ltd.); and/or proanthocyanidin, a protein kinase C-specific inhibitor or tocopherol (added in an amount of 1/100 by volume), followed by further culturing in 5% CO2 at 37° C. for 5 days. During the culturing, the medium was replaced with a fresh one every other day.
As a control, the cells were cultured in the same medium as above except that DMSO alone was added in an amount of 1/100 by volume in place of DMSO containing lysophosphatidic acid or phosphatidic acid, and/or proanthocyanidin, a protein kinase C-specific inhibitor or tocopherol.
The degree of cell growth was measured according to the method using MTT [3-(4,5-dimethylthiazol-2-yl)-2,5-diphenyl tetrazolium bromide] [Experimental Medicine (extra number), Bio Manual UP Series, Experimental Method of Cell Culture for Molecular Biological Studies, p. 89–92, Yodosha (1995)].
To each well of the 24-well microplate (2 cm^2/well) was added a PBS solution of MTT (5 mg/ml) in an amount of 1/10 by volume based on 1 ml of the culture. […]

[2] = target: protein kinase A (PKA) (Bos taurus, UniProt P00517); experiment: Measurement of PKA-inhibiting activity (PKA-IC50); assay type: biochemical; settings: crude enzyme partially purified from calf heart
Excerpt: (2) Method for Measuring PKA-Inhibiting Activity

[3] = test system: protein kinase C (PKC); experiment: Measurement of PKC-inhibiting activity (PKC-IC50); settings: for pIC50: read-out: PKC-IC50, crude enzyme partially purified from rat brain
Protocol: (1) Method for Measuring PKC-Inhibiting Activity
Measurement of PKC-inhibiting activity can be carried out in a manner similar to the method of Kikkawa, et al. [Journal of Biological Chemistry, 257, 13341 (1982)].
To 250 μl of an aqueous solution comprising 2.5 μmol of magnesium acetate, 50 μg of histone Type IIIS (Sigma Chemical Co., Ltd.), 20 μg of phosphatidylserine, 0.8 μg. of diolein, 25 nmol of calcium chloride, 5 μg of a crude enzyme (partially purified from rat brain by the method of Kikkawa, et al.) and 5 μmol of Tris-HCl buffer (pH 7.5) is added the above aqueous solution containing a test compound (10 μl), followed by incubation at 30° C. for 3 minutes. After the incubation, 1.25 nmol of [γ-^32P]ATP (5–10×10^3 cpm/nmol) is added thereto, followed by phosphorylation reaction at 30° C. for 3 minutes. The reaction is terminated by addition of 25% trichloroacetic acid and the reaction mixture is filtered through a cellulose acetate membrane (pore size: 0.45 μm, Toyo Filter Co., Ltd.) After the membrane is washed four times with 5% trichloroacetic acid, the radioactivity remaining on the membrane is measured as a test compound value. Separately, the above procedure is carried out in the same manner without addition of the test compound and the radioactivity is measured as a control value.
The molar concentration of the test compound giving a test compound value which is 50% of the control value is regarded as the 50% PKC inhibition constant (PKC-IC50).

[4] = Table 2 (2), 10 μmol/l alone, 5 days culture
[5] = Table 2 (1), 3 μmol/l alone, 5 days culture
[6] = Table 2 (1), 30 μmol/l alone, 5 days culture

Compound: CCCCCCCCCCCCCC(=O)OCC(COP(=O)(O)O)OC(=O)CCCCCCCCCCCCC (stereo not drawn) [Dimyristoyl phosphatidic acid, dimyristoyl phosphatidic acid]
- Relative cell growth rate based on the control as 100 [1, 4]: 361

Compound: CCCCCCCC/C=C\CCCCCCCC(=O)OC[C@H](COP(=O)(O)O)OC(=O)CCCCCCC/C=C\CCCCCCCC [Dioleoyl phosphatidic acid, dioleoyl phosphatidic acid]
- Relative cell growth rate based on the control as 100 [1, 4]: 255

Compound: CCCCCCCCCCCC(=O)OC[C@H](COP(=O)(O)O)OC(=O)CCCCCCCCCCC [Dilauroyl phosphatidic acid, dilauroyl phosphatidic acid]
- Relative cell growth rate based on the control as 100 [1, 4]: 379

Compound: Polymyxin B
- pIC50 [2]: < 3.00
- PKA-IC50/PKC-IC50 [3]: > 384
- pIC50 [3]: 5.59

Compound: CCCCCCCC/C=C\CCCCCCCC(=O)OC[C@@H](O)COP(=O)(O)O [Monooleoyl lysophosphatidic acid, monooleoyl lysophosphatidic acid]
- Relative cell growth rate based on the control as 100 [1, 5]: 200

Compound: CCCCCCCCCCCCCCCC(=O)OC[C@H](COP(=O)(O)O)OC(=O)CCCCCCCCCCCCCCC [Dipalmitoyl phosphatidic acid, dipalmitoyl phosphatidic acid]
- Relative cell growth rate based on the control as 100 ([1]; Table 2 (2), 20 μmol/l alone): 314

Compound: CCCCCCCCCC(=O)OCC(COP(=O)(O)O)OC(=O)CCCCCCCCC (stereo not drawn) [Didecanoyl phosphatidic acid, didecanoyl phosphatidic acid]
- Relative cell growth rate based on the control as 100 ([1]; Table 2 (2), 1 μmol/l alone): 168

Compound: Calphostin C
- pIC50 [2]: < 4.30
- PKA-IC50/PKC-IC50 ([3]; ratio of PKA-IC50 to PKC-IC50): >1000 ∥mol/l
- pIC50 [3]: 7.30
- Relative cell growth rate based on the control as 100 [1, 5]: 180
- Relative cell growth rate based on the control as 100 ([1]; Table 2 (2), 0.01 μmol/l alone): 172

Compound: CCCCCCCCCCCCCCCC(=O)OC(CC(=O)[O-])C[N+](C)(C)C (racemic) [Palmitoyl-DL-carnitine]
- pIC50 [2]: < 3.00
- PKA-IC50/PKC-IC50 [3]: > 4.3
- pIC50 [3]: 3.64

Compound: Cc1c(C)c2c(c(C)c1O)CCC(C)(CCCC(C)CCCC(C)CCCC(C)C)O2 (racemic) [dl-α-Tocopherol]
- Relative cell growth rate based on the control as 100 [1, 6]: 150
- Relative cell growth rate based on the control as 100 ([1]; Table 2 (2), 30 μmol/l alone): 199

Compound: Oc1cc(O)c2c(c1)O[C@H](c1ccc(O)c(O)c1)[C@H](O)[C@H]2c1c(O)cc(O)c2c1O[C@H](c1ccc(O)c(O)c1)[C@H](O)C2 [Procyanidin B-2, epicatechin-(4β→8)-epicatechin]
- Relative cell growth rate based on the control as 100 [1, 6]: 260
- Relative cell growth rate based on the control as 100 [1, 4]: 251
